How the values were obtained:
Assay in all cases: 50% growth inhibitory concentration (IC50) determination assay
Assay type in all cases: cell-based
Conditions in all cases: Iso-Sensitest broth, 0.098 = detection limit
A. baumannii (ATCC17978) = tested on: A. baumannii (ATCC17978)
Experimental: (§1) Stock compounds in DMSO were serially two-fold diluted (range from 50 to 0.097 μM final concentration) in 384 wells microtiter plates and inoculated with 49 μL the bacterial suspension in Iso-Sensitest broth medium to have a final cell concentration of ˜5×10^5 CFU/mL in a final volume/well of 50 μL/well. Microtiter plates were incubated at 35±2° C. Bacterial cell growth was determined with the measurement of optical density at λ=600 nm each 20 minutes over a time course of 16 h. […] GP-6 (Example 4.131 disclosed in WO 2012/125746 A1) was used as the reference compound in Table 6-8. […] The data of IC50 over S. aureus (ATCC29213), K. pneumoniae (ATCC10031), and A. baumannii (ATCC17978) are illustrated in Table 6.

[1] = tested on: K. pneumoniae (ATCC10031)
Experimental: as §1

S. aureus (ATCC29213) = tested on: S. aureus (ATCC29213)
Experimental: as §1

[2] = Acinetobacter baumannii, ATCC17978, A. baumannii ATCC17978

Row | Structure (SMILES) | IC50 (A. baumannii (ATCC17978); [2]) [µM] | IC50 ([1]; Klebsiella pneumoniae) [µM] | IC50 (S. aureus (ATCC29213); Staphylococcus aureus) [µM] | other results
1 | CNc1cc(F)c(F)c2c1[nH]c1ncc(-c3cnc4c(c3)c(=O)c(C(=O)O)cn4C)c(N3CCC4(C[C@@H]4N(C)C)C3)c12 (stereo partly drawn) [Example 6.01, 6-(4-(trans-2-(Dimethylamino)-5-azaspiro[2.4]heptan-5-yl)-5,6-difluoro-8-(methylamino)-9H-pyrido[2,3-b]indol-3-yl)-1-methyl-4-oxo-1,4-dihydro-1,8-naphthyridine-3-carboxylic acid] | 0.257 | 0.118 | < 0.098 | –
2 | CNc1cc(F)c(F)c2c1[nH]c1ncc(-c3cnc4c(c3)c(=O)c(C(=O)O)cn4C)c(N3CCSCC3)c12 [Example 1.97] | 0.507 | 0.257 | < 0.098 | –
3 | CNc1cc(F)c(F)c2c1[nH]c1ncc(-c3cnc4c(c3)c(=O)c(C(=O)O)cn4C3CCNC3)c(N3CCCC3)c12 (stereo not shown) [Example 1.89] | – | – | – | IC50 (A. baumannii (ATCC17978); A. baumannii ATCC17978): 0.315 µM; IC50 [1]: < 0.098 µM; IC50 (S. aureus (ATCC29213)): < 0.098 µM
4 | CNc1cc(F)c(F)c2c1[nH]c1ncc(-c3cnc4c(c3)c(=O)c(C(=O)O)cn4C)c(N3CCC4(C[C@H]4N(C)C)C3)c12 (stereo partly drawn) [Example 6.02, 6-(4-cis-(2-(dimethylamino)-5-azaspiro[2.4]heptan-5-yl)-5,6-difluoro-8-(methylamino)-9H-pyrido[2,3-b]indol-3-yl)-1-methyl-4-oxo-1,4-dihydro-1,8-naphthyridine-3-carboxylic acid] | 0.389 | 0.166 | < 0.098 | –
5 | CCn1cc(C(=O)O)c(=O)c2cc(-c3cnc4[nH]c5c(NC)cc(F)cc5c4c3N(C)C)cnc21 [Example 1.19] | 0.283 | 0.145 | < 0.098 | –
6 | CNc1cc(F)cc2c1[nH]c1ncc(-c3cnc4c(c3)c(=O)c(C(=O)O)cn4C)c(N3CCO[C@H](C)C3)c12 [Example 1.49] | 0.112 | < 0.098 | < 0.098 | –
7 | CCn1cc(C(=O)O)c(=O)c2cc(-c3cnc4[nH]c5c(NC)cc(F)c(F)c5c4c3N(C)CCOC)cnc21 [Example 1.06] | 0.849 | 0.17 | < 0.098 | –
8 | CNc1cc(F)c(F)c2c1[nH]c1ncc(-c3cnc4c(c3)c(=O)c(C(=O)O)cn4C)c(N3CCC(O)(C(F)(F)F)C3)c12 (stereo not shown) [Example 1.129] | 0.302 | – | < 0.098 | –
9 | CNc1cc(F)c(F)c2c1[nH]c1ncc(-c3cnc4c(c3)c(=O)c(C(=O)O)cn4C)c(N3CCC(CN(C)CCOC)C3)c12 (stereo not shown) [Example 1.142] | 0.195 | < 0.098 | < 0.098 | –
10 | CNc1cc(F)cc2c1[nH]c1ncc(-c3cnc4c(c3)c(=O)c(C(=O)O)cn4C)c(N3CCSCC3)c12 [Example 1.66] | 0.415 | < 0.098 | < 0.098 | –
11 | CNc1cc(F)cc2c1[nH]c1ncc(-c3cnc4c(c3)c(=O)c(C(=O)O)cn4C)c(N3C[C@@H]4OCCN(C)[C@@H]4C3)c12 [Example 3.22B] | 0.256 | < 0.098 | < 0.098 | –
12 | CNc1cc(F)c(F)c2c1[nH]c1ncc(-c3cnc4c(c3)c(=O)c(C(=O)O)cn4CC(C)(C)N(C)C)c(N(C)C)c12 [Example 1.178] | 0.235 | < 0.098 | < 0.098 | –
13 | CNc1cc(F)cc2c1[nH]c1ncc(-c3cnc4c(c3)c(=O)c(C(=O)O)cn4C)c(N3CCOCC3)c12 [Example 1.48] | 0.11 | < 0.098 | < 0.098 | –
14 | CNc1cc(F)c(F)c2c1[nH]c1ncc(-c3cnc4c(c3)c(=O)c(C(=O)O)cn4C)c(N3CCCC3)c12 [Example 1.208] | 0.78 | 0.16 | < 0.098 | –
15 | CNc1cc(F)c(F)c2c1[nH]c1ncc(-c3cnc4c(c3)c(=O)c(C(=O)O)cn4NCC(F)(F)F)c(N(C)C)c12 [Example 5.03, 6-(4-(dimethylamino)-5,6-difluoro-8-(methylamino)-9H-pyrido[2,3-b]indol-3-yl)-4-oxo-1-((2,2,2-trifluoroethyl)amino)-1,4-dihydro-1,8-naphthyridine-3-carboxylic acid] | 0.745 | 0.275 | < 0.098 | –
16 | CCn1cc(C(=O)O)c(=O)c2cc(-c3cnc4[nH]c5c(NC)c(F)c(F)cc5c4c3N(C)C)cnc21 [Example 1.20] | 0.209 | 0.141 | < 0.098 | –
17 | CNc1cc(F)cc2c1[nH]c1ncc(-c3cnc4c(c3)c(=O)c(C(=O)O)cn4C)c(N3CCCOCC3)c12 [Example 1.60] | 0.248 | < 0.098 | < 0.098 | –
18 | CNc1cc(F)c(F)c2c1[nH]c1ncc(-c3cnc4c(c3)c(=O)c(C(=O)O)cn4C)c(N3CC4[C@H](CCN4CCO)C3)c12 (stereo partly shown) [Example 1.261] | 0.215 | < 0.098 | < 0.098 | –

Row | Structure (SMILES) | IC50 (A. baumannii (ATCC17978); [2]) [µM] | IC50 ([1]; Klebsiella pneumoniae) [µM] | IC50 (S. aureus (ATCC29213); Staphylococcus aureus) [µM] | other results
19 | CNc1cc(F)c(F)c2c1[nH]c1ncc(-c3cnc4c(c3)c(=O)c(C(=O)O)cn4NC)c(N3C[C@@H]4OCCN(C)[C@@H]4C3)c12 [Example 3.13B] | 0.16 | < 0.098 | < 0.098 | –
20 | CNc1cc(F)c(F)c2c1[nH]c1ncc(-c3cnc4c(c3)c(=O)c(C(=O)O)cn4C)c(N3CCN[C@@H](C(F)(F)F)C3)c12 [Example 4.01B, (R)-6-(5,6-Difluoro-8-(methylamino)-4-(3-(trifluoromethyl)piperazin-1-yl)-9H-pyrido[2,3-b]indol-3-yl)-1-methyl-4-oxo-1,4-dihydro-1,8-naphthyridine-3-carboxylic acid] | 0.352 | – | – | –
21 | CNc1cc(F)cc2c1[nH]c1ncc(-c3cnc4c(c3)c(=O)c(C(=O)O)cn4C)c(N3CCC(N(C)C4CC4)C3)c12 (stereo not shown) [Example 1.118] | 0.521 | – | – | –
22 | CNc1cc(F)c(F)c2c1[nH]c1ncc(-c3cnc4c(c3)c(=O)c(C(=O)O)cn4NC)c(N3CC[C@@H](N(C)C)C3)c12 [Example 1.257] | 0.201 | – | – | –
23 | CNc1cc(F)c(Cl)c2c1[nH]c1ncc(-c3cnc4c(c3)c(=O)c(C(=O)O)cn4C)c(N(C)C)c12 [Example 1.117] | 0.164 | – | – | –
24 | CNc1cc(Cl)cc2c1[nH]c1ncc(-c3cnc4c(c3)c(=O)c(C(=O)O)cn4C)c(N3C[C@@H]4CC[C@H](N(C)C)[C@@H]4C3)c12 [Example 3.20B] | 0.252 | – | – | –
25 | CNc1cc(F)c(F)c2c1[nH]c1ncc(-c3cnc4c(c3)c(=O)c(C(=O)O)cn4C)c(N3CCOC(COC)C3)c12 (stereo not shown) [Example 1.10] | 0.192 | – | – | –
26 | CNc1cc(F)c(F)c2c1[nH]c1ncc(-c3cnc4c(c3)c(=O)c(C(=O)O)cn4C)c(N3CCN[C@H](C(F)(F)F)C3)c12 [Example 4.01A, (S)-6-(5,6-Difluoro-8-(methylamino)-4-(3-(trifluoromethyl)piperazin-1-yl)-9H-pyrido[2,3-b]indol-3-yl)-1-methyl-4-oxo-1,4-dihydro-1,8-naphthyridine-3-carboxylic acid] | 0.393 | – | – | –
27 | CNc1cc(F)c(F)c2c1[nH]c1ncc(-c3cnc4c(c3)c(=O)c(C(=O)O)cn4C)c(N3CC4[C@H](CC[C@@H]4N(C)C)C3)c12 (stereo partly shown) [Example 1.288] | 0.269 | – | – | –
28 | CNc1cc(Cl)cc2c1[nH]c1ncc(-c3cnc4c(c3)c(=O)c(C(=O)O)cn4NC)c(N3CC[C@H]4CN(C)C[C@H]43)c12 [Example 3.12A] | 0.081 | – | – | –
29 | CNc1cc(F)c(F)c2c1[nH]c1ncc(-c3cnc4c(c3)c(=O)c(C(=O)O)cn4C)c(N3CCC(N(C)C4CC4)C3)c12 (stereo not shown) [Example 1.116] | 0.355 | – | – | –
30 | CNc1cc(Cl)cc2c1[nH]c1ncc(-c3cnc4c(c3)c(=O)c(C(=O)O)cn4C)c(N3CC[C@H]4CN(C)C[C@H]43)c12 [Example 3.11A] | 0.122 | – | – | –
31 | CNc1cc(F)c(F)c2c1[nH]c1ncc(-c3cnc4c(c3)c(=O)c(C(=O)O)cn4Cc3ccncc3)c(N(C)C)c12 [Example 1.30] | 0.242 | – | < 0.098 | –
32 | CNc1cc(F)c(F)c2c1[nH]c1ncc(-c3cnc4c(c3)c(=O)c(C(=O)O)cn4C)c(N3CC4C(O)CO[C@@H]4C3)c12 (stereo partly shown) [Example 1.287] | 0.502 | – | – | –
33 | CNc1cc(F)c(F)c2c1[nH]c1ncc(-c3cnc4c(c3)c(=O)c(C(=O)O)cn4C)c(N3C[C@H](F)[C@@H](N(C)C)C3)c12 [Example 1.159] | 0.189 | – | – | –
34 | CNc1cc(Cl)cc2c1[nH]c1ncc(-c3cnc4c(c3)c(=O)c(C(=O)O)cn4C)c(N3CC4[C@H](CC[C@H]4N(C)C)C3)c12 (stereo partly shown) [Example 1.285] | 0.253 | – | – | –
35 | CNc1cc(Cl)cc2c1[nH]c1ncc(-c3cnc4c(c3)c(=O)c(C(=O)O)cn4C)c(N3C[C@H]4CC[C@H](N(C)C)[C@H]4C3)c12 [Example 3.20A] | 0.149 | – | – | –
